In patent publication US4835252A, “Vasoactive intestinal peptide analogs” (The Salk Institute Biotechnology/Industrial Associates, Inc., priority 1987, dated 1989):
pIC50: −log10 of the molar value. No end group written: not given here.

Legend:
[1] = target: VIP receptors in rat lung membrane
Protocol: Radioreceptor assays were carried out to determine the affinities of analogs of Example I for VIP receptors in rat lung membrane, following Leroux et al., Endocrinology 114, 1506-1512 (1984).
The following buffers were prepared:
Buffer A: 250 mM sucrose, 5 mM MgCl2, 25 mM Tris, pH 7.4
Buffer B: 5 mM MgCl2, 25 mM Tris, pH 7.4
Buffer C: 25 mM Tris, 5 mM MgCl2, 1 mg/ml bacitracin, 2 mg/ml bovine serum albumin ("BSA"), pH 7.4
Phenylmethylsulfonyl fluoride ("PMSF") was added, to a final concentration of 1 mM, to the buffers immediately prior to their use.
^125 I-labeled, human VIP (^125 I-VIP) was purchased from New England Nuclear (Boston, Mass., U.S.A.). The peptide as purchased was diluted to 10^-5 Ci/ml with Buffer C and stored in 25 ul or 50 ul aliquots at -20° C., which were subsequently diluted with Buffer C, as described below, for the assays.
Rat lung membrane was prepared for the assay as follows, following Leroux et al., supra: Five female Sprague-Dawley rats (200-250 g) were sacrificed and their hearts perfused with iced, phosphate-buffered saline (PBS) through the right atrium (approximately 30 ml PBS per rat). The lungs, which were whitened, were then removed and placed directly in iced PBS and any blood was rinsed from the tissue. The lung tissue was then transferred to a weighing device on ice; blood vessels, fat and the like were removed from the tissue; and the tissue was blotted and weighed. The lung tissue was then transferred to a 50 cm^3 Falcon tube with 2 ml of Buffer A per g lung tissue (approximately 25 ml Buffer A) and homogenized at 4° C. 1 minute in a polytron (Brinkmann Instruments Co., Westbury, N.Y., U.S.A.) and then with a glass/teflon homogenizer (approximately 5-6 strokes). The homogenate was filtered through two layers of cheesecloth, and the filtrate was then transferred to tubes for centrifugation at 30,000×g for 10 minutes. The pellets were then resuspended in approximately 70 ml of Buffer B using a glass/teflon homogenizer and the resulting suspensions were again centrifuged at 30,000×g for ten minutes. The resulting pellets were resuspended in 50 ml of Buffer B using a glass/teflon homogenizer. The suspension was divided into 1.0 ml aliquots in microfuge tubes, which were quickly frozen and stored on dry ice until use.
When used, an aliquot of suspension was thawed and microfuged at 4° C. for several minutes to pellet suspended material. The supernatant was carefully removed and the pellet resuspended in 1 ml of Buffer C.
Prior to use of a VIP receptor-containing suspension in an assay, the protein concentration was adjusted to 2 mg/ml by addition of Buffer C. Then 100 ul of this suspension (2 mg/ml) was combined with 100 ul of solution of ^125 I-VIP, 100 ul of solution of the VIP or analog thereof being assayed and 200 ul of Buffer C; consequently, the concentration of protein from the rat lung VIP receptor preparations used in the assays was 0.4 mg/ml.
In the radioreceptor assays, the ability of analog to displace ^125 I-VIP from binding in the receptor preparation was measured by a standard procedure. For each analog, and naturally occurring human VIP as standard, a series of solutions, of 500 ul total volume in Buffer C, containing various concentrations of analog or standard (between about 10^-11 M and 10^-6 M), ^125 I-VIP at 100 cpm/ul (about 2×10^-10 M), and receptor preparation (0.4 mg protein/ml) were assayed.

[2] = tested on: dispersed guinea pig pancreatic acinar cells; assay: Amylase-release assay with dispersed pancreatic acinar cells; type: cell-based; conditions: ED50 for the human VIP standard divided by ED50 for the analog; 30 minutes at 37° C.
Protocol: The bioactivity of analogs of Example I, chicken VIP, guinea pig VIP, and human VIP without amidation at the carboxy-terminus was determined, relative to that of naturally occurring human VIP, by an amylase-release assay employing dispersed guinea pig pancreatic acinar cells. The assay was essentially that described by Peikin et al., Am. J. Physiol. 235, E743-E749 (1978).
For the assays conducted each day, dispersed acinar cells, free of debris, were freshly prepared from a pancreas of a male or female guinea pig (120-150 gm), following generally the method described by Peikin et al., supra.
The procedure employed a "standard incubation medium," which consisted of 95 mM NaCl; 6 mM KCl; 2.5 mM NaH2 PO4; 5 mM each of sodium pyruvate, sodium fumarate and sodium glutamate; 0.5 mM CaCl2, 1.0 mM MgCl2, 11.5 mM glucose, 0.05 mg/ml glutamine; amino acids and vitamius from Eagle's Minimum Essential Medium at their concentration in such Eagle's Medium; 25 mM HEPES; 0.08 mg/ml soybean trypsin inhibitor (Calbiochem); pH 7.4.
The animal was sacrificed, its pancreas removed and the pancreas trimmed of fat, blood vessels, duodenum and the like. With a syringe with a 25 gauge needle, 10.0 ml of collagenase solution (standard incubation medium with 0.2 mg/ml C. histolyticum collagenase and 2 mg/ml BSA (Fraction V) (both from Calbiochem, San Diego, California, U.S.A.)) was injected into the pancreas, which was then transferred to a 25 ml flask, gassed with 100% O2, and shaken on a shaker as rapidly as possible for 10 minutes at 37° C. Then the liquid was poured off and replaced with another 5.0 ml of collagenase solution, and the gassing with 100% O2 and shaking for 10 minutes at 37° C. were repeated. The replacement of liquid, gassing with 100% O2 and shaking at 37° C. were again repeated. If, by visual inspection, digestion appeared to be incomplete, vigorous shaking by hand with 1 minute incubation at 37° C. were repeated until digestion was complete. The mass was then broken up further by passing chunks through a large bore serological pipette, and then a small bore pipette. Very large chunks, fur and debris were removed with a long Pasteur pipette. Then half of the resulting acinar cell suspension was placed into each of two 15 ml clear, polystyrene tubes, each containing 4.0 ml of 4.0% BSA solution (standard incubation medium with 40 mg/ml BSA (Fraction V) and 2 mM, rather than 0.5 mM, CaCl2). Both combinations were mixed thoroughly and debris was again removed. The resulting suspensions were spun at medium speed in a tabletop centrifuge for 30 seconds, the supernatants were discarded, and the pellets were resuspended in 4.0 ml of 4.0% BSA and 4.0 ml of 0.2% BSA solution (standard suspension medium with 2 mg/ml BSA (Fraction V) and 2 mM, rather than 0.5 mM, CaCl2), the suspension was again cleaned of debris, and then spun as above with the tabletop centrifuge. The supernatants were discarded and the pellets again washed with 4.0 ml of 4% BSA solution and repelleted as above with the tabletop centrifuge. Again, the supernatants were discarded and the pellets were carried into one 250 ml Erlenmeyer flask, to which 50.0 ml of 1% BSA solution (standard incubation medium with 10 mg/ml BSA (Fraction V) and 5 mM theophylline) had been added. When the cells were not used immediately, the suspension was gassed with 100% O2. The preparation was acceptable for use in an assay only if the cells were fine and well dispersed and there was nothing visible in the preparation other than cells. […]

[3] = Stability against proteolytic degradation in crude rat-lung homogenate; conditions: 10^-5 M peptide in crude rat lung homogenate, 37° C., intact peptide by HPLC
Protocol: The stability of naturally occurring, human VIP and various analogs described in Example I was assessed by determining their resistance to degradation when incubated with a crude rat-lung homogenate.
For the assay, the lungs were taken from a female Sprague-Dawley rat and were perfused with ice-cold phosphate-buffered saline, as described in Example II. The whitened lungs were polytroned and then homogenized in Degradation Assay Buffer (25 mM Tris, 5 mM MgCl2, pH 7.4), and the homogenate was filtered through cheesecloth. The filtrate was then diluted to a final volume of 500 ml with Degradation Assay Buffer, to yield the crude lung homogenate.
Resistance to degradation was measured by determining the half-life of the human VIP or analog in the crude lung homogenate. To determine these half-lives, the human VIP or analog was added to 1 ml of the crude homogenate to a concentration of 10^-5 M, and the mixture was incubated at 37° C. After incubation for the desired time period, the sample was placed in a 100° C. bath and boiled for 5 minutes, and then acidified with glacial acetic acid (10% final volume) and, finally, cooled rapidly by being placed on dry ice. The sample was then microfuged at 4° C. for 15 minutes, and the supernatant analysized for peptide content by HPLC.

Compound | HALF-LIFE [3] [min] | RELATIVE IC50 [1] | pIC50 ([1]; read-out: concentration required to displace half of the 125I-VIP / occupy half the receptor sites, rat lung membrane receptor preparation at 0.4 mg protein/ml) | Potency (Amylase Release Assay) [2]
CC[C@H](C)[C@H](NC(=O)[C@H](CO)NC(=O)[C@H](CC(N)=O)NC(=O)[C@H](CC(C)C)NC(=O)[C@H](Cc1ccc(O)cc1)NC(=O)[C@H](CCCCN)NC(=O)[C@H](CCCCN)NC(=O)[C@@H](NC(=O)[C@H](C)NC(=O)[C@H](CCSC)NC(=O)[C@H](CCC(N)=O)NC(=O)[C@H](CCCCN)NC(=O)[C@H](CCCNC(=N)N)NC(=O)[C@H](CC(C)C)NC(=O)[C@H](CCCNC(=N)N)NC(=O)[C@@H](NC(=O)[C@H](Cc1ccc(O)cc1)NC(=O)[C@H](CC(N)=O)NC(=O)[C@H](CC(=O)O)NC(=O)[C@@H](NC(=O)[C@H](Cc1ccccc1)NC(=O)[C@@H](NC(=O)[C@H](C)NC(=O)[C@H](CC(=O)O)NC(=O)[C@H](CO)NC(=O)[C@@H](N)Cc1c[nH]cn1)C(C)C)[C@@H](C)O)[C@@H](C)O)C(C)C)C(=O)N[C@@H](CC(C)C)C(=O)N[C@@H](CC(N)=O)C(N)=O [Human VIP, HSDAVFTDNYTRLRKQMAVKKYLNSILN-NH2, reference compound] | 16 | – | ~9.30 | 1.0
CC[C@H](C)[C@H](NC(=O)[C@H](CO)NC(=O)[C@H](CC(N)=O)NC(=O)[C@H](CC(C)C)NC(=O)[C@H](Cc1ccc(O)cc1)NC(=O)[C@H](CCCCN)NC(=O)[C@H](CCCCN)NC(=O)[C@@H](NC(=O)[C@H](C)NC(=O)[C@H](CCSC)NC(=O)[C@H](CCC(N)=O)NC(=O)[C@H](CCCCN)NC(=O)[C@H](CCCNC(=N)N)NC(=O)[C@H](CC(C)C)NC(=O)[C@H](CCCNC(=N)N)NC(=O)[C@@H](NC(=O)[C@H](Cc1ccc(O)cc1)NC(=O)[C@H](CC(N)=O)NC(=O)[C@H](CC(=O)O)NC(=O)[C@@H](NC(=O)[C@H](Cc1ccccc1)NC(=O)[C@@H](NC(=O)[C@H](C)NC(=O)[C@H](CC(=O)O)NC(=O)[C@H](CO)NC(=O)[C@@H](N)Cc1c[nH]cn1)C(C)C)[C@@H](C)O)[C@@H](C)O)C(C)C)C(=O)N[C@@H](CC(C)C)C(=O)N[C@@H](CC(N)=O)C(=O)O [reference compound] | – | – | – | 0.4
H-HSDAVFSDSYSRFRRSMAVRRYLSNVLT-NH2 [Analog V, HSDAVFSDSYSRFRRSMAVRRYLSNVLT-(NH2)i] | 2.5 | 4.2 | – | 0.2
HSDALFTDTYTRLRKQMAMKKYLNSVLN-NH2 [Guinea Pig VIP, reference compound] | – | 20 | – | 0.05
HSDAVFTDNYSRFRKQMAVKKYLNSVLT-NH2 [Chicken VIP, reference compound] | – | 1.4 | – | 0.5
HSDAVYSDSFSRYRSRVALSRFVRNVVT-NH2 [Analog II, HSDAVYSDSFSRYRSRVALSRFVRNVVT-(NH2)i] | 7.5 | 550 | – | 1 × 10^-4
HSDAVYTDNFSRYRKQVALKKFVNSVVT-NH2 [Analog IV, HSDAVYTDNFSRYRKQVALKKFVNSVVT-(NH2)i] | 5 | 1040 | – | 4.4 × 10^-3

The next lines start with results.

HALF-LIFE [3] [min] | RELATIVE IC50 [1] | Compound | pIC50 ([1]; read-out: concentration required to displace half of the 125I-VIP / occupy half the receptor sites, rat lung membrane receptor preparation at 0.4 mg protein/ml) | Potency (Amylase Release Assay) [2]
– | 175 | HSDAVFTDNYSRFRKQMAVRRFVNSVLT-NH2 [Analog IX, HSDAVFTDNYSRFRKQMAVRRFVNSVLT-(NH2)i] | – | 7 × 10^-4
– | 86 | HSDAVFTDNYSRYRRQMAVKKYLNSVLT-NH2 [Analog VII, HSDAVFTDNYSRYRRQMAVKKYLNSVLT-(NH2)i] | – | 1.0 × 10^-3
4 | 2350 | HSDAVYSDSFRSYRSRVALSRFVRNVVT-NH2 [Analog III, HSDAVYSDSFRSYRSRVALSRFVRNVVT-(NH2)i] | – | 1.0 × 10^-3
4 | 140 | HSDAVYSDSFSRYRRSVALRRFVSNVVT-NH2 [Analog I, HSDAVYSDSFSRYRRSVALRRFVSNVVT-(NH2)i] | – | 5 × 10^-4
